# Where two headings read alike, the source gives them in different places.
# Columns and labels:
# [1] = tested on: Staphylococcus aureus 88 E; experiment: Antibacterial activity for MRSA; type: cell-based; conditions: Staphylococcus aureus 88 E (MRSA)
# Method: (§1) The compound of example 2 was orally administered to determine the LD50 for a group of male mice. […] The antibacterial activity for MRSA(Methicillin Resistant Staphyloccocus Aureus) was tested by the compound of example 2.
# [2] = tested on: Staphylococcus aureus 693E; experiment: Antibacterial activity for MRSA; type: cell-based; conditions: Staphylococcus aureus 693E (MRSA)
# Method: as §1
# [3] = tested on: Staphylococcus aureus 256E; experiment: Antibacterial activity for MRSA; type: cell-based; conditions: Staphylococcus aureus 256E (MRSA)
# Method: as §1
# [4] = tested on: Staphylococcus aureus 694E; experiment: Antibacterial activity for MRSA; type: cell-based; conditions: Staphylococcus aureus 694E (MRSA)
# Method: as §1
# [5] = tested on: Staphylococcus aureus 708E; experiment: Antibacterial activity for MRSA; type: cell-based; conditions: Staphylococcus aureus 708E (MRSA)
# Method: as §1
# [6] = tested on: Staphylococcus aureus 701E; experiment: Antibacterial activity for MRSA; type: cell-based; conditions: Staphylococcus aureus 701E (MRSA)
# Method: as §1
# [7] = tested on: Staphylococcus aureus 208E; experiment: Antibacterial activity for MRSA; type: cell-based; conditions: Staphylococcus aureus 208E (MRSA)
# Method: as §1
# [8] = tested on: Staphylococcus aureus 706E; experiment: Antibacterial activity for MRSA; type: cell-based; conditions: Staphylococcus aureus 706E (MRSA)
# Method: as §1
# [9] = tested on: Staphylococcus aureus 121E; experiment: Antibacterial activity for MRSA; type: cell-based; conditions: Staphylococcus aureus 121E (MRSA)
# Method: as §1
# [10] = tested on: Staphylococcus aureus 714E; experiment: Antibacterial activity for MRSA; type: cell-based; conditions: Staphylococcus aureus 714E (MRSA)
# Method: as §1
# [11] = tested on: Staphylococcus aureus 707E; experiment: Antibacterial activity for MRSA; type: cell-based; conditions: Staphylococcus aureus 707E (MRSA)
# Method: as §1
# [12] = tested on: Staphylococcus aureus 703E; experiment: Antibacterial activity for MRSA; type: cell-based; conditions: Staphylococcus aureus 703E (MRSA)
# Method: as §1
# [13] = tested on: Staphylococcus aureus 697E; experiment: Antibacterial activity for MRSA; type: cell-based; conditions: Staphylococcus aureus 697E (MRSA)
# Method: as §1
# [14] = tested on: Staphylococcus aureus 711E; experiment: Antibacterial activity for MRSA; type: cell-based; conditions: Staphylococcus aureus 711E (MRSA)
# Method: as §1
# [15] = tested on: Staphylococcus aureus 690E; experiment: Antibacterial activity for MRSA; type: cell-based; conditions: Staphylococcus aureus 690E (MRSA)
# Method: as §1
# [16] = tested on: Staphylococcus aureus 695E; experiment: Antibacterial activity for MRSA; type: cell-based; conditions: Staphylococcus aureus 695E (MRSA)
# Method: as §1
# [17] = tested on: Saphylococcus aureus 692E; experiment: Antibacterial activity for MRSA; type: cell-based; conditions: Saphylococcus aureus 692E (MRSA)
# Method: as §1
# [18] = tested on: Staphylococcus aureus 752E; experiment: Antibacterial activity for MRSA; type: cell-based; conditions: Staphylococcus aureus 752E (MRSA)
# Method: as §1
# [19] = tested on: Staphylococcus aureus 705E; experiment: Antibacterial activity for MRSA; type: cell-based; conditions: Staphylococcus aureus 705E (MRSA)
# Method: as §1
# S. aureus 285 = experiment: In vitro antibacterial activity, MIC by agar dilution method; type: cell-based
# Method: (§2) The typical examples of the present compounds were tested for antimicrobial activity in vitro against twenty strains of Gram-positive and Gram-negative microorganisms.
# (§3) The numerals in the table 1 show minimum inhibitory concentrations(MIC in µg/ml). The minimum inhibitory concentrations were determined according to the agar dilution method recommended by Japan Society of Chemotherapy[Chemotherapy., 29, 76 (1981)].
# P. aeruginosa 1771M = experiment: as above; type: cell-based; conditions: Pseudomonas aeruginosa; P. aeruginosa 1771M; agar dilution method; read-out: In vitro Antibacterial Activity, MIC
# Method: as §2, §3
# K. oxytoca 1082E = experiment: as above; type: cell-based; conditions: Klebsiella oxytoca; K. oxytoca 1082E; agar dilution method; read-out: In vitro Antibacterial Activity, MIC
# Method: as §2, §3
# S. pyogenes A 77 = experiment: as above; type: cell-based; conditions: Streptococcus pyogenes
# Method: as §2, §3
# P. aeruginosa 9027 = experiment: as above; type: cell-based; conditions: Pseudomonas aeruginosa; P. aeruginosa 9027; agar dilution method; read-out: In vitro Antibacterial Activity, MIC
# Method: as §2, §3
# S. aureus SG 511 = experiment: as above; type: cell-based; conditions: Staphylococcus aureus
# Method: as §2, §3
# S. aureus 503 = experiment: as above; type: cell-based
# Method: as §2, §3
# P. aeruginosa 1771 = experiment: as above; type: cell-based
# Method: as §2, §3
# E. coli TEM = experiment: as above; type: cell-based; conditions: Escherichia coli; E. coli TEM; agar dilution method; read-out: In vitro Antibacterial Activity, MIC
# Method: as §2, §3
# P. aeruginosa 1592E = experiment: as above; type: cell-based; conditions: Pseudomonas aeruginosa, read-out: In vitro Antibacterial Activity, MIC
# Method: as §2, §3
# S. pyogenes A 308 = experiment: as above; type: cell-based; conditions: Streptococcus pyogenes, A308; S. pyogenes A 308; agar dilution method; read-out: In vitro Antibacterial Activity, MIC
# Method: as §2, §3
# S. faecium MD 86 = experiment: as above; type: cell-based; conditions: Enterococcus faecium, MD86; S. faecium MD 86; agar dilution method; read-out: In vitro Antibacterial Activity, MIC
# Method: as §2, §3
# E. coli DC 0 = experiment: as above; type: cell-based; conditions: Escherichia coli, DC0, read-out: In vitro Antibacterial Activity, MIC
# Method: as §2, §3
# E. coli DC 2 = experiment: as above; type: cell-based; conditions: Escherichia coli
# Method: as §2, §3
# E. coli 1507E = experiment: as above; type: cell-based; conditions: Escherichia coli; E. coli 1507E; agar dilution method; read-out: In vitro Antibacterial Activity, MIC
# Method: as §2, §3
# E. cloacae P99 = experiment: as above; type: cell-based; conditions: Enterobacter cloacae; E. cloacae P99; agar dilution method; read-out: In vitro Antibacterial Activity, MIC
# Method: as §2
# (§4) The minimum inhibitory concentrations were determined according to the agar dilution method recommended by Japan Society of Chemotherapy[Chemotherapy., 29, 76 (1981)].
# E. coli O 55 = experiment: as above; type: cell-based; conditions: Escherichia coli, O55; E. coli O 55; agar dilution method; read-out: In vitro Antibacterial Activity, MIC
# Method: as §2, §4
# E. cloacae 1321E = experiment: as above; type: cell-based; conditions: Enterobacter cloacae; E. cloacae 1321E; agar dilution method; read-out: In vitro Antibacterial Activity, MIC
# Method: as §2, §4
# K. aerogenes 1522E = experiment: as above; type: cell-based; conditions: Klebsiella aerogenes; K. aerogenes 1522E; agar dilution method; read-out: In vitro Antibacterial Activity, MIC
# Method: as §2, §4
# S. typhimurium = experiment: as above; type: cell-based; conditions: Salmonella enterica; S. typhimurium; agar dilution method; read-out: In vitro Antibacterial Activity, MIC
# Method: as §2, §4
# Oral LD50 in male mice = conditions: mouse, in vivo, orally administered
# Method: as §1
SMILES,Antibacterial Activity for MRSA [1] [µg/mL],Antibacterial Activity for MRSA [2] [µg/mL],Antibacterial Activity for MRSA [3] [µg/mL],Antibacterial Activity for MRSA [4] [µg/mL],Antibacterial Activity for MRSA [5] [µg/mL],Antibacterial Activity for MRSA [6] [µg/mL],Antibacterial Activity for MRSA [7] [µg/mL],Antibacterial Activity for MRSA [8] [µg/mL],Antibacterial Activity for MRSA [9] [µg/mL],Antibacterial Activity for MRSA [10] [µg/mL],Antibacterial Activity for MRSA [11] [µg/mL],Antibacterial Activity for MRSA [12] [µg/mL],Antibacterial Activity for MRSA [13] [µg/mL],Antibacterial Activity for MRSA [14] [µg/mL],Antibacterial Activity for MRSA [15] [µg/mL],Antibacterial Activity for MRSA [16] [µg/mL],Antibacterial Activity for MRSA [17] [µg/mL],Antibacterial Activity for MRSA [18] [µg/mL],Antibacterial Activity for MRSA [19] [µg/mL],MIC (P. aeruginosa 1771M) [µg/mL],further results
"O=C(O)c1cn(C2CC2)c2cc(N3CCNCC3)c(F)cc2c1=O [CIP, Ciprofloxacin, reference compound]",0.391,0.391,0.391,0.391,0.098,0.391,0.195,0.391,0.391,0.195,0.391,0.195,0.195,0.098,0.195,0.391,0.195,0.195,0.391,0.049,"MIC (S. aureus 285; Staphylococcus aureus, 285, read-out: In vitro Antibacterial Activity, MIC): 0.195 µg/mL; MIC (K. oxytoca 1082E): 0.002 µg/mL; MIC (S. pyogenes A 77; A77, read-out: In vitro Antibacterial Activity, MIC): 0.195 µg/mL; MIC (P. aeruginosa 9027): 0.098 µg/mL; MIC (S. aureus SG 511; SG511, read-out: In vitro Antibacterial Activity, MIC): 0.195 µg/mL; MIC (S. aureus 503; Staphylococcus aureus, 503, read-out: In vitro Antibacterial Activity, MIC): 0.391 µg/mL; MIC (P. aeruginosa 1771; Pseudomonas aeruginosa, 1771, read-out: In vitro Antibacterial Activity, MIC): 0.195 µg/mL; MIC (E. coli TEM): 0.098 µg/mL; MIC (P. aeruginosa 1592E; 1592E): 0.195 µg/mL; MIC (S. pyogenes A 308): 1.56 µg/mL; MIC (S. faecium MD 86): 0.781 µg/mL; MIC (E. coli DC 0): 0.195 µg/mL; MIC (E. coli DC 2; DC2, E. coli DC 2, agar dilution method, read-out: In vitro Antibacterial Activity, MIC): 0.098 µg/mL; MIC (E. coli 1507E): 0.049 µg/mL"
"CSCC1CCN(c2c(F)cc3c(=O)c(C(=O)O)cn(C4CC4)c3c2F)C1 (centres unmarked) [Example 2, 1-cyclopropyl-6,8-difluoro-7-(3-methylthiomethylpyrrolidinyl)-1,4-dihydro-4-oxo-3-quinolinecarboxylic acid]",0.004,0.007,0.013,0.013,0.007,0.013,0.025,0.013,0.013,0.007,0.007,0.007,0.013,0.013,0.004,0.013,0.004,0.013,0.013,0.098,"MIC (E. cloacae P99): 0.098 µg/mL; MIC (E. coli O 55): 0.013 µg/mL; MIC (E. cloacae 1321E): 0.025 µg/mL; MIC (K. aerogenes 1522E): 0.098 µg/mL; MIC (S. typhimurium): 0.049 µg/mL; LD50 (Oral LD50 in male mice): > 3000 mg/kg; MIC (S. aureus 285; Staphylococcus aureus, S. aureus 285, agar dilution method, read-out: In vitro Antibacterial Activity, MIC): 0.002 µg/mL; MIC (K. oxytoca 1082E): 0.007 µg/mL; MIC (S. pyogenes A 77; A77, S. pyogenes A 77, agar dilution method, read-out: In vitro Antibacterial Activity, MIC): 0.098 µg/mL; MIC (P. aeruginosa 9027): 0.781 µg/mL; MIC (S. aureus SG 511; SG511, S. aureus SG 511, agar dilution method, read-out: In vitro Antibacterial Activity, MIC): 0.002 µg/mL; MIC (S. aureus 503; Staphylococcus aureus, S. aureus 503, agar dilution method, read-out: In vitro Antibacterial Activity, MIC): 0.002 µg/mL; MIC (P. aeruginosa 1771; Pseudomonas aeruginosa, P. aeruginosa 1771, agar dilution method, read-out: In vitro Antibacterial Activity, MIC): 0.391 µg/mL; MIC (E. coli TEM): 0.391 µg/mL; MIC (P. aeruginosa 1592E; P. aeruginosa 1592E, agar dilution method): 0.781 µg/mL; MIC (S. pyogenes A 308): 0.195 µg/mL; MIC (S. faecium MD 86): 0.195 µg/mL; MIC (E. coli DC 0): 0.781 µg/mL; MIC (E. coli DC 2; DC2, read-out: In vitro Antibacterial Activity, MIC): 0.781 µg/mL; MIC (E. coli 1507E): 0.391 µg/mL"

# Reference: patent EP0500835B1, “A NOVEL QUINOLONE CARBOXYLIC ACID DERIVATIVE” (DAEWOONG PHARMACEUTICAL CO., LTD., priority 1990, dated 1992)
